{"source": "paper PMC6784069", "about": "(Toxins, 2019)", "key": {"[1]": {"tested_on": "NaV1.1", "conditions": "cited from earlier work"}, "[2]": {"tested_on": "Drosophila Para/TipE", "conditions": "cited from earlier work"}, "[3]": {"tested_on": "hNaV1.2, 1.5 and 1.7–1.8, hCaV1.2 and hKV11.1 currents", "conditions": "for Hill number nH, all concentration–response curves: SD"}, "[4]": {"tested_on": "OD1-induced painful behavior of mice", "conditions": "mouse, in vivo"}, "[5]": {"target": "T1, hNaV1.7 (Homo sapiens, UniProt Q15858)", "assay": "cell-based", "format": "cell-based", "conditions": "for IC50: SD"}, "[6]": {"tested_on": "NaV1.5", "conditions": "cited from earlier work"}, "[7]": {"target": "hCaV1.2 (Homo sapiens, UniProt Q13936)", "assay": "cell-based", "conditions": "SD"}, "[8]": {"tested_on": "NaV1.3", "conditions": "cited from earlier work"}, "[9]": {"tested_on": "paw formalin injection pain", "conditions": "mouse, in vivo; cited from earlier work"}, "[10]": {"target": "hNaV1.2 (Homo sapiens, UniProt Q99250)", "sequence (Q99250 whole entry)": "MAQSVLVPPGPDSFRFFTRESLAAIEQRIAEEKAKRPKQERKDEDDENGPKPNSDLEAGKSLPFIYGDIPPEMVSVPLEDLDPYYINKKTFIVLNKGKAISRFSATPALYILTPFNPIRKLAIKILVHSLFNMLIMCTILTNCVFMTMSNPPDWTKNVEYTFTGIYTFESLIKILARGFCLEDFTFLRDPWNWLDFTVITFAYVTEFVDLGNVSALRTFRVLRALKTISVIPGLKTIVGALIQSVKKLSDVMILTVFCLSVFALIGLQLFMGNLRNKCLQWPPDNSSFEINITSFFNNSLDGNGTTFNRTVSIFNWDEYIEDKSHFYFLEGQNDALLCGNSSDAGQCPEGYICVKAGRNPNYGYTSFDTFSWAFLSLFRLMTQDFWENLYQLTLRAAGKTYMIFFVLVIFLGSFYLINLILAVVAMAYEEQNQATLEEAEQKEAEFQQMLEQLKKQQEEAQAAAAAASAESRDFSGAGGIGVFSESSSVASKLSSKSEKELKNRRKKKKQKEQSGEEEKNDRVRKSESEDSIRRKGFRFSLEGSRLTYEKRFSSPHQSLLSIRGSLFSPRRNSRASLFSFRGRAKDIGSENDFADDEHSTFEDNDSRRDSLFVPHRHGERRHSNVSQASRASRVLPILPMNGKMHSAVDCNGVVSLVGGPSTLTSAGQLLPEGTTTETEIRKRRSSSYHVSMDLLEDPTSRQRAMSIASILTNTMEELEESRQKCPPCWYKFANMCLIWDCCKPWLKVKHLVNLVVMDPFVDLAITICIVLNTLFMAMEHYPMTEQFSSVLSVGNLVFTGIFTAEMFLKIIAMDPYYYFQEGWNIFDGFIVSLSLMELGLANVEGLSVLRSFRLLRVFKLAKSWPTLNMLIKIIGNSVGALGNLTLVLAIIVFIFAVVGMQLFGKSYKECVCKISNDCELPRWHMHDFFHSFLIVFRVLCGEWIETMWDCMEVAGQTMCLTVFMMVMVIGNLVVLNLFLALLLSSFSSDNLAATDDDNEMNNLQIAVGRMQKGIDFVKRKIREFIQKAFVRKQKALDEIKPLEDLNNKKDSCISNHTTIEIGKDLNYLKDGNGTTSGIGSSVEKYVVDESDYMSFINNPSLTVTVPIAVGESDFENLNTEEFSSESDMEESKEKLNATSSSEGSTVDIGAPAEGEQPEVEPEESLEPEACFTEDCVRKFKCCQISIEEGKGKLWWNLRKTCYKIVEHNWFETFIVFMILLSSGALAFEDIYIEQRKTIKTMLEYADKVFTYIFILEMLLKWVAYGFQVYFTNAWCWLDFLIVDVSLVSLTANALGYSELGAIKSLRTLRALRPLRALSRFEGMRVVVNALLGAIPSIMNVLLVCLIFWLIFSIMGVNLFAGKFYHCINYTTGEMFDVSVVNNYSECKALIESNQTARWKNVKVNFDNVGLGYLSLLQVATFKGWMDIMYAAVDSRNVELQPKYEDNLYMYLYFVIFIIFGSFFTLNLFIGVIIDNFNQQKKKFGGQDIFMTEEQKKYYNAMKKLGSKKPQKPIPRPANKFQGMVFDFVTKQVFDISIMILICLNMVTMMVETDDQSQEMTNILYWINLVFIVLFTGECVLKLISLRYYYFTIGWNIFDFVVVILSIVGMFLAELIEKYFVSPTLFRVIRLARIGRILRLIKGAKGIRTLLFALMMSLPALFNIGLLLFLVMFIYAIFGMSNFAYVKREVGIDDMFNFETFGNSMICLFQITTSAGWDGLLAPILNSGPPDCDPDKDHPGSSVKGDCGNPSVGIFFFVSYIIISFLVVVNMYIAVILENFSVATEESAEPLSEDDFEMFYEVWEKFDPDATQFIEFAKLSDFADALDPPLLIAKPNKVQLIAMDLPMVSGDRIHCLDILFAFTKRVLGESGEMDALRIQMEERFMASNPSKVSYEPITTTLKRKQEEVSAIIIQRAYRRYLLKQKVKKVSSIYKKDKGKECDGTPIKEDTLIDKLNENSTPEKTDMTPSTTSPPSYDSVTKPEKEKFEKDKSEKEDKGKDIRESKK", "assay": "cell-based", "conditions": "SD"}, "[11]": {"tested_on": "acute heat responses", "conditions": "in vivo, ip; cited from earlier work"}, "[12]": {"tested_on": "NaV1.8", "conditions": "cited from earlier work"}, "[13]": {"target": "hNaV1.1 (Homo sapiens, UniProt P35498)", "assay": "cell-based", "conditions": "SD"}, "[14]": {"target": "hNaV1.6 (Homo sapiens, UniProt Q9UQD0)", "assay": "cell-based", "conditions": "SD"}, "[15]": {"target": "hNaV1.8 (Homo sapiens, UniProt Q9Y5Y9)", "assay": "cell-based", "format": "cell-based"}, "[16]": {"tested_on": "CFA-induced heat hyperalgesia", "conditions": "mouse, in vivo; cited from earlier work"}, "[17]": {"target": "T2, hKV11.1 (Homo sapiens, UniProt Q12809)", "T2 sequence (Q12809 whole entry)": "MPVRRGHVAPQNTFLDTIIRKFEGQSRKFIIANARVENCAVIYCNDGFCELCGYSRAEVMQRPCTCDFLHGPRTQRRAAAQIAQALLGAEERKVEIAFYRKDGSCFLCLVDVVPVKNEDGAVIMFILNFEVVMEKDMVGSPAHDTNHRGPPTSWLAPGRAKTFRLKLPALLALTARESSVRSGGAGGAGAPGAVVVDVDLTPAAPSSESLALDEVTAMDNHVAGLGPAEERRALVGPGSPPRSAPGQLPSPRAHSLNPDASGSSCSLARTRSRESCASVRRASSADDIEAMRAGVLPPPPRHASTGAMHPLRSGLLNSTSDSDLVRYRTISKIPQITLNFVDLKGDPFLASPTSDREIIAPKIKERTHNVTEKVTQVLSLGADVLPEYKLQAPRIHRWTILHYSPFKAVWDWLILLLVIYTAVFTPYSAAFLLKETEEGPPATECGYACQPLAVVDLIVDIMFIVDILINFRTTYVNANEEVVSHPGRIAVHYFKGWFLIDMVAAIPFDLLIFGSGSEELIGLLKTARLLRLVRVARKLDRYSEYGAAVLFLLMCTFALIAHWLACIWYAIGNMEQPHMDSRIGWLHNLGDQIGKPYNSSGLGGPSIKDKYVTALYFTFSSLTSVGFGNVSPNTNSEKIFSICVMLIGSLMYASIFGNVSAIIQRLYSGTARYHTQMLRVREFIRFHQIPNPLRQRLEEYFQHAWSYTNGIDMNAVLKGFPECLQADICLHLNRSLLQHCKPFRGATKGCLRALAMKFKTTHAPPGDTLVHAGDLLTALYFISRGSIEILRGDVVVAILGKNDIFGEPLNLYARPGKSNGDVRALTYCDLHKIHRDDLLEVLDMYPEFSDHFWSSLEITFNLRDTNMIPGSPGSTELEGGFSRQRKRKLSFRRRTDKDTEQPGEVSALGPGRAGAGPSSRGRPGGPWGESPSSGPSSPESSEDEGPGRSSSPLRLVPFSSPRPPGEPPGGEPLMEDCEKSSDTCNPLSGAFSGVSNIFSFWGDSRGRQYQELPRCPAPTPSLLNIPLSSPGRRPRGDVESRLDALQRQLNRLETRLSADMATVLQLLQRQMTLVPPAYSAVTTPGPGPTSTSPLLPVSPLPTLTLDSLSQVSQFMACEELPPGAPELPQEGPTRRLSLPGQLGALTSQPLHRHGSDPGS"}, "[18]": {"target": "hNaV1.5 (Homo sapiens, UniProt Q14524)", "sequence (Q14524 whole entry, looked up)": "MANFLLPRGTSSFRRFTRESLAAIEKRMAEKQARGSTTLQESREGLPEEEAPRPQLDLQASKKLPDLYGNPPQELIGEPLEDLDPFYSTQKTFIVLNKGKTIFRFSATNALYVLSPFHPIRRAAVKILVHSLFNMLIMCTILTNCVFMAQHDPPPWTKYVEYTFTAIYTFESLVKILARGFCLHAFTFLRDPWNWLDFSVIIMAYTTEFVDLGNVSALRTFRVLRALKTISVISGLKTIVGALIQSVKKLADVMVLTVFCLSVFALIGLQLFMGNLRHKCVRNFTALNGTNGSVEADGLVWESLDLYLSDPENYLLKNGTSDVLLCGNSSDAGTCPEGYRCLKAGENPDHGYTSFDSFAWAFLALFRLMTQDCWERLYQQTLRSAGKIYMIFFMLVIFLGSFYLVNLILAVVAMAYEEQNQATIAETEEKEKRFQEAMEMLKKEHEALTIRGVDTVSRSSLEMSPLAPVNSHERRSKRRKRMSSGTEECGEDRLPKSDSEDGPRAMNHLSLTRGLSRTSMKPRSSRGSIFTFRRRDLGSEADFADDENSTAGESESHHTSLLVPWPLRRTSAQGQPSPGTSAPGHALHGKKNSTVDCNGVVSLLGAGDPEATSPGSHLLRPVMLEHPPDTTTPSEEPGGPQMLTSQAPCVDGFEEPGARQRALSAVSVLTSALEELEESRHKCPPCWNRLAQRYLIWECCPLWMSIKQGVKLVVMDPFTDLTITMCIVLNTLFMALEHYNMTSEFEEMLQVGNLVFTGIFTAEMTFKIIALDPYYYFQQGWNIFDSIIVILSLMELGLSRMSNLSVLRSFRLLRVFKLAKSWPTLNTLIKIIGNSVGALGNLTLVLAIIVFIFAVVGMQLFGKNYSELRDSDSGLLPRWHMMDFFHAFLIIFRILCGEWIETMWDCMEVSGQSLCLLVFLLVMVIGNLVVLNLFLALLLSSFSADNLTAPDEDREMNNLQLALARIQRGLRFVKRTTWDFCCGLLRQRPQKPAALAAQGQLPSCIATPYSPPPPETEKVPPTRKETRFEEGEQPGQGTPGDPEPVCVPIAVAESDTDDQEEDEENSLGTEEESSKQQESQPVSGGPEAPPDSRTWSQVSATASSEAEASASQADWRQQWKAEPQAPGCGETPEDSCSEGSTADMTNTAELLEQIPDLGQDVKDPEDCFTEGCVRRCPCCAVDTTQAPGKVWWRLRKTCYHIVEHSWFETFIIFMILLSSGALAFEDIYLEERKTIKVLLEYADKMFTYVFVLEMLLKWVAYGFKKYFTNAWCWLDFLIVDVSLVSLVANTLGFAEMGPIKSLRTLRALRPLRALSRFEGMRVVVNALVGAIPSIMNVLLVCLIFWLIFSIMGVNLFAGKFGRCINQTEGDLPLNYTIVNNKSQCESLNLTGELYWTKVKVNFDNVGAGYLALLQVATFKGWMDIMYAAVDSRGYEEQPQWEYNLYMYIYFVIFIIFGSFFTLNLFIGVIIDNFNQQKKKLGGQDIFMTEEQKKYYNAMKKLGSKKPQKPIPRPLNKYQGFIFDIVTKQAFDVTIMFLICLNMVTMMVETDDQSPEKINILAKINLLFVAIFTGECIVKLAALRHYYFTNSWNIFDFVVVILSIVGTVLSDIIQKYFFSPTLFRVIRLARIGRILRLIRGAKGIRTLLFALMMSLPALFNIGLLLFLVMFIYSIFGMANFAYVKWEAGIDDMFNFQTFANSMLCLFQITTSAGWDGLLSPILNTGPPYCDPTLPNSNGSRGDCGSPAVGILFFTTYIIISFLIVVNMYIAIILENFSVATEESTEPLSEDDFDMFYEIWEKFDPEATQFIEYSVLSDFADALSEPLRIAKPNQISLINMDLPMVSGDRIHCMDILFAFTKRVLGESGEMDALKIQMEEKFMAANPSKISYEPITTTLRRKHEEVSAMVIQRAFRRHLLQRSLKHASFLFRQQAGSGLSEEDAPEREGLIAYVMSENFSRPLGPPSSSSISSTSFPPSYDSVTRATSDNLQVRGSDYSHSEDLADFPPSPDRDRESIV", "assay": "cell-based", "conditions": "IC50 on hNaV1.5 current; SD"}, "[19]": {"tested_on": "NaV1.2", "conditions": "cited from earlier work"}, "[20]": {"target": "hNaV1.3 (Homo sapiens, UniProt Q9NY46)", "assay": "cell-based", "conditions": "SD"}, "[21]": {"tested_on": "NaV1.7", "conditions": "cited from earlier work"}, "[22]": {"tested_on": "hNaV1.1–1.8", "format": "cell-based, human", "conditions": "read-out: IC90–95 (compound concentration necessary to inhibit 90–95% of current)"}, "[23]": {"target": "T2, hKV11.1", "assay": "in vitro", "conditions": "pH 7.4"}, "[24]": {"target": "T1, hNaV1.7", "conditions": "cited from earlier work"}, "[25]": {"tested_on": "OD1-induced painful behavior of mice", "conditions": "mouse, in vivo; cited from earlier work"}}, "note": "Values joined by “and” are separate entries in the source; they are usually repeats but may differ in a detail not shown here. Identical values can stand only once. Like-named read-outs stand apart in the source and are kept apart here. Residues, ends and D or L forms follow the SMILES beside them."}
{"compound": "CC(C)C[C@@H]1NC(=O)[C@@H](NC(=O)[C@H](C)N)CSSC[C@@H]2NC(=O)[C@@H]3CSSC[C@@H](C(=O)N[C@@H](CCCNC(=N)N)C(=O)N[C@@H](Cc4ccc(O)cc4)C(=O)N[C@@H](CCCCN)C(=O)N[C@@H](CC(C)C)C(=O)N[C@@H](Cc4ccccc4)C(=O)O)NC(=O)[C@H](Cc4c[nH]c5ccccc45)NC(=O)[C@@H]4CCCN4C(=O)[C@H](Cc4ccc(O)cc4)NC(=O)[C@H](CCCCN)NC(=O)[C@H](Cc4c[nH]c5ccccc45)NC(=O)[C@H](CCC(=O)O)NC(=O)[C@H](CSSC[C@H](NC(=O)[C@H](CO)NC(=O)[C@H](CC(=O)O)NC(=O)[C@H](Cc4c[nH]c5ccccc45)NC(=O)[C@H](CCC(N)=O)NC(=O)CNC1=O)C(=O)N[C@@H](CC(=O)O)C(=O)N1CCC[C@H]1C(=O)N[C@@H](CCCCN)C(=O)N[C@@H](C)C(=O)N[C@@H](CO)C(=O)N[C@@H](CCCCN)C(=O)N3)NC(=O)[C@H](C)NC(=O)[C@H](Cc1ccc(O)cc1)NC(=O)[C@H](CC(N)=O)NC(=O)[C@@H]1CCCN1C2=O", "note": "[PhlTx1] (HELM PEPTIDE1{A.C.L.G.Q.W.D.S.C.D.P.K.A.S.K.C.C.P.N.Y.A.C.E.W.K.Y.P.W.C.R.Y.K.L.F}$PEPTIDE1,PEPTIDE1,2:R3-17:R3|PEPTIDE1,PEPTIDE1,9:R3-22:R3|PEPTIDE1,PEPTIDE1,16:R3-29:R3$$$V2.0)", "values": [{"measurement": "inhibition of NaV1.1 current", "setting": "[1]", "result": "less than 10%"}, {"measurement": "inhibition of Drosophila Para/TipE current", "setting": "[2]", "result": "less than 10%"}, {"measurement": "Hill number nH, all concentration–response curves", "setting": "[3]", "result": "1.05 ± 0.15"}, {"measurement": "cardiac or neuromuscular side-effects", "setting": "[4]", "result": "no sign of cardiac or neuromuscular side-effects"}, {"measurement": "pharmacological activity on the hNaV1.7 current", "setting": "[5]", "result": "strongly inhibit"}, {"measurement": "selectivity towards the TTX-R (except hNaV1.8) and other TTX-S (except hNaV1.4) hNaV subtypes", "setting": "[5]", "result": "less than 10 fold"}, {"measurement": "IC50", "setting": "[5]; IC50 on hNaV1.7 current", "result": "309 ± 17", "unit": "nM"}, {"measurement": "IC50", "setting": "[5]; hNaV1.7 IC50", "result": 254, "unit": "nM"}, {"measurement": "inhibition of NaV1.5 current", "setting": "[6]", "result": "less than 10%"}, {"measurement": "IC50", "setting": "[7]", "result": "5900 ± 2100", "unit": "nM"}, {"measurement": "inhibition of NaV1.3 current", "setting": "[8]", "result": "less than 10%"}, {"measurement": "effects in acute and inflammatory neuropathic (paw formalin injection) pain", "setting": "[9]", "result": "Anti-allodynic and analgesic effects"}, {"measurement": "IC50", "setting": "[10]", "result": "73.7 ± 46.3", "unit": "nM"}, {"measurement": "IC50", "setting": "[10]; read-out: IC50 on hNaV1.2 current", "result": "279 ± 6.1", "unit": "nM"}, {"measurement": "effect on mouse acute heat responses", "setting": "[11]", "result": "ineffective"}, {"measurement": "inhibition of NaV1.8 current", "setting": "[12]", "result": "less than 10%"}, {"measurement": "IC50", "setting": "[13]", "result": "280 ± 118", "unit": "nM"}, {"measurement": "IC50", "setting": "[14]", "result": "491 ± 109", "unit": "nM"}, {"measurement": "IC50", "setting": "[15]", "result": "> 10000", "unit": "nM"}, {"measurement": "effect on the hNaV1.8 current", "setting": "[15]", "result": "unaffected"}, {"measurement": "analgesia in CFA-induced heat hyperalgesia", "setting": "[16]", "result": "ineffective"}, {"measurement": "effect on the hKV11.1 current", "setting": "[17]", "result": "no effect"}, {"measurement": "IC50", "setting": "[18]", "result": "711 nM and 396 nM"}, {"measurement": "inhibition of NaV1.2 current", "setting": "[19]", "result": "less than 10%"}, {"measurement": "IC50", "setting": "[20]", "result": "202 ± 110", "unit": "nM"}, {"measurement": "inhibition of NaV1.7 current", "setting": "[21]", "result": "greater than 90%"}, {"measurement": "IC50", "setting": "[21]; read-out: mean IC50 for interaction with the NaV1.7 subtype", "result": 260, "unit": "nM"}]}
{"compound": "NC1=N[C@H](O)[C@H]2[C@H]3O[C@]4(O)O[C@@H]([C@@H](O)[C@@]2(N1)[C@@H]4O)[C@]3(O)CO", "note": "[Tetrodotoxin (citrate), Tetrodotoxin]", "values": [{"measurement": "IC90", "setting": "[22]", "result": 1000, "unit": "nM"}]}
{"compound": "CC(C)C[C@@H]1NC(=O)[C@@H](NC(=O)[C@H](C)N)CSSC[C@@H]2NC(=O)[C@@H]3CSSC[C@@H](C(=O)N[C@@H](CCCNC(=N)N)C(=O)N[C@@H](Cc4ccc(O)cc4)C(=O)N[C@@H](CCCCN)C(=O)N[C@@H](CC(C)C)C(=O)N[C@@H](Cc4ccccc4)C(=O)O)NC(=O)[C@H](Cc4c[nH]c5ccccc45)NC(=O)[C@@H]4CCCN4C(=O)[C@H](Cc4ccc(O)cc4)NC(=O)[C@H](CCCCN)NC(=O)[C@H](Cc4c[nH]c5ccccc45)NC(=O)[C@H](CCC(=O)O)NC(=O)[C@H](CSSC[C@H](NC(=O)[C@H](CO)NC(=O)[C@H](C)NC(=O)[C@H](Cc4c[nH]c5ccccc45)NC(=O)[C@H](CCC(N)=O)NC(=O)CNC1=O)C(=O)N[C@@H](CC(=O)O)C(=O)N1CCC[C@H]1C(=O)N[C@@H](CCCCN)C(=O)N[C@@H](C)C(=O)N[C@@H](CO)C(=O)N[C@@H](CCCCN)C(=O)N3)NC(=O)[C@H](C)NC(=O)[C@H](Cc1ccc(O)cc1)NC(=O)[C@H](CC(N)=O)NC(=O)[C@@H]1CCCN1C2=O", "note": "[D7A] (HELM PEPTIDE1{A.C.L.G.Q.W.A.S.C.D.P.K.A.S.K.C.C.P.N.Y.A.C.E.W.K.Y.P.W.C.R.Y.K.L.F}$PEPTIDE1,PEPTIDE1,2:R3-17:R3|PEPTIDE1,PEPTIDE1,9:R3-22:R3|PEPTIDE1,PEPTIDE1,16:R3-29:R3$$$V2.0)", "values": [{"measurement": "gain of affinity versus PhlTx1", "setting": "[3]", "result": "2.5-7.4 fold"}, {"measurement": "Hill number nH, all concentration–response curves", "setting": "[3]", "result": "1.06 ± 0.13"}, {"measurement": "IC50", "setting": "[5]; IC50 on hNaV1.7 current", "result": "73 ± 23.7", "unit": "nM"}, {"measurement": "IC50", "setting": "[5]; hNaV1.7 IC50", "result": 47, "unit": "nM"}, {"measurement": "IC50", "setting": "[7]", "result": "800 ± 253", "unit": "nM"}, {"measurement": "IC50", "setting": "[10]", "result": "47.3 ± 5.2", "unit": "nM"}, {"measurement": "IC50", "setting": "[15]; SD", "result": "4000 ± 500", "unit": "nM"}, {"measurement": "activity on the KV11.1 subtype", "setting": "[17]", "result": "inactive"}, {"measurement": "IC50", "setting": "[18]", "result": "93.3 ± 32.9", "unit": "nM"}]}
{"compound": "CC[C@H](C)[C@H](NC(=O)[C@H](CC(=O)O)NC(=O)[C@@H](NC(=O)[C@@H]1CCCN1C(=O)[C@@H](N)CCCNC(=N)N)[C@@H](C)O)C(=O)N[C@@H](CCCCN)C(=O)N[C@H]1CSSC[C@@H]2NC(=O)[C@H](CCCNC(=N)N)NC(=O)CNC(=O)[C@H](CC(N)=O)NC(=O)[C@H]([C@@H](C)O)NC(=O)[C@H](CCCCN)NC(=O)CNC(=O)[C@H](Cc3ccccc3)NC(=O)[C@H](CCCNC(=N)N)NC(=O)[C@H](CO)NC(=O)[C@H](CCCCN)NC(=O)[C@@H]3CSSC[C@@H](C(=O)N[C@@H](Cc4ccccc4)C(=O)O)NC(=O)[C@H](CC(=O)O)NC(=O)[C@H](CSSC[C@H](NC(=O)[C@H](CCC(N)=O)NC(=O)[C@H](Cc4ccc(O)cc4)NC(=O)[C@H](CO)NC(=O)[C@H](CCC(=O)O)NC(=O)[C@H](CO)NC1=O)C(=O)N[C@@H](Cc1ccccc1)C(=O)N1CCC[C@H]1C(=O)N[C@@H](C(C)C)C(=O)N3)NC(=O)[C@H](Cc1ccccc1)NC(=O)CNC(=O)[C@H](CC(N)=O)NC(=O)[C@H](C(C)C)NC2=O", "note": "[BeKm-1] (HELM PEPTIDE1{R.P.T.D.I.K.C.S.E.S.Y.Q.C.F.P.V.C.K.S.R.F.G.K.T.N.G.R.C.V.N.G.F.C.D.C.F}$PEPTIDE1,PEPTIDE1,7:R3-28:R3|PEPTIDE1,PEPTIDE1,13:R3-33:R3|PEPTIDE1,PEPTIDE1,17:R3-35:R3$$$V2.0)", "values": [{"measurement": "IC90", "setting": "[23]", "result": 1000, "unit": "nM"}]}
{"compound": "Cd1a: spider toxin, NaV ligand (CLGWFKSCDPKNDKCCKNYSCSRRDRWCKYDL)", "values": [{"measurement": "IC50", "setting": "[24]", "result": 16, "unit": "nM"}, {"measurement": "concentration efficient to diminish or completely reverse the OD1-induced manifestations of pain", "setting": "[25]", "result": 1, "unit": "µM"}]}
{"compound": "CcoTx2: spider toxin, NaV ligand (CLGWFKSCDPKNDKCCKNYTCSRRDRWCKYYL)", "values": [{"measurement": "IC50", "setting": "[24]", "result": 95, "unit": "nM"}, {"measurement": "concentration efficient to diminish or completely reverse the OD1-induced manifestations of pain", "setting": "[25]", "result": 1, "unit": "µM"}]}
